From US5399691A, “Substituted benzoylurea derivatives or their salts” (Ishihara Sangyo Kaisha Ltd., priority 1991, dated 1995)
Values after ≈ are worked out from the molar mass of the structure shown. Where a name gives a salt, the structure may show the parent alone. Read-outs that look alike come from different tables or passages of the source.

What was measured:
[1] = test system: P-388 leukemia; experiment: Antitumor activity against P-388 leukemia, increase life span (Test Example 1); type: in vivo, BDF1 mouse (murine); conditions: days 1, 5 and 9
Source text: The compounds of the present invention are effective against experimental murine tumors such as P-388 leukemia, L-1210 leukemia, B-16 melanoma, M-5076 sarcoma, Colon 38, Colon 26 and Lewis lung carcinoma. On the other hand, certain in vivo test systems and protocols have been developed by National Cancer Institute for testing compounds to determine the effectiveness of test compounds as antineoplastic agents. These have been reported in "Cancer Chemotherapy Reports", Part III, Vol. 3, No. 2 (1972) written by Deran, Greenberg, MacDonald, Schumacher and Abott. P-388 leukemia is the most standard experimental murine tumor, and it is known that many of drugs effective against human tumor are also effective against this leukemia. Generally, the effectiveness of a drug for these experimental murine tumors is evaluated by the extended median survival time of a test mouse group to which a test drug is administered on the basis of the median survival time of a control mouse group to which no drug is administered. If the extended median survival time is at least 25-30% longer, the administered drug is determined to be effective.
1×10^6 of P-388 leukemia cells per mouse were intraperitoneally transplanted into BDF1 mouse. Each formulation was intraperitoneally or intravenously administered on the 1st, 5th and 9th days after the transplantation.
The increase life span of each group was determined by comparing the median survival time (days) of a test group to which a test drug is administered and the median survival time (days) of a control group to which physiological saline was administered at the same part as in the case of the test group. Among the tested drug formulations, the compounds of the present invention were formulated in accordance with the below-mentioned Formulation Example 1, and the comparative compounds as shown in Table 8 were formulated in accordance with the below-mentioned Formulation Example 2.
(Note) * Increase life span is calculated by the following equation:
Increase life span % (ILS)=(a/b×100)-100 a: Median survival days of test group of drug administration b: Median survival days of control group of physiological saline administration 0.125 part by weight of the above mentioned Compound No. 1 was dissolved in 5 parts by weight of N,N-dimethylacetamide and 5 parts by weight of polyoxyethylene sorbitan monooleate, and 90 parts by weight of physiological saline was added thereto to form a solution formulation in an agate mortar.
0.125 part by weight of Comparative Compound No. 1 was dissolved in 5 parts by weight of N,N-dimethylacetamide and 5 parts by weight of polyoxyethylene sorbitan monooleate, and 90 parts by weight of physiological saline was added thereto to form a suspension formulation in an agate mortar.

[2] = Solubility in water-soluble solvent by HPLC (Test Example 2); type: physicochemical
Experimental: About 2 mg of each of the compounds of the present invention shown in the following Table 7 was accurately weighed, and was completely dissolved in 2 ml of N,N-dimethylacetamide. The content was then transferred into a 10 ml-measuring flask, and its volume was made constant with acetonitrile. 3 ml of the resultant solution was placed in a 50 ml-measuring flask, and its volume was adjusted constant with acetonitrile to prepare a standard solution. Next, about 2 mg of each of the compounds of the present invention was weighed, and was placed in an agate mortar. Thereafter, 1.5 ml of a test liquid (water-soluble solvent) was added thereto, and the content was mixed for 5 minutes. A suspension thus obtained, was transferred into a 1.5 ml-microtube, and was centrifuged at 15,000 r.p.m. for 10 minutes. The supernatant fluid was placed in a 1 ml-microtube, and was centrifuged again under the same conditions. 0.1 ml of the supernatant fluid thus obtained was diluted with 0.9 ml of acetonitrile to prepare a measuring liquid. The above standard solution and the measuring liquid were analyzed by high pressure liquid chromatography (HPLC), and their solubilities were measured by absolute calibration curve method.
Column: Nucleosil 5 C18, diameter=4.6 mm, length=250 mm
Mobile phase: acetonitrile/water/acetic acid=60/40/0.1
Detection: UV 265 nm, Column temperature: 40° C.,
Sensitivity: 0.005 AUFS or 0.16 AUFS,

[3] = Acute toxicity; type: in vivo; conditions: mouse, in vivo; BDF1 mice, intravenous, Formulation Example 1; read-out: acute toxicity value (LD 50)
Experimental: (§1) None of BDF1 mice were dead by intravenously administering each formulation of Compound Nos. 1 to 9, 20, 49 and 53 of the present invention prepared in accordance with Formulation Example 1 in an amount of 25 mg/kg mouse (on the basis of compound).
(§2) 0.125 part by weight of the above mentioned Compound No. 1 was dissolved in 5 parts by weight of N,N-dimethylacetamide and 5 parts by weight of polyoxyethylene sorbitan monooleate, and 90 parts by weight of physiological saline was added thereto to form a solution formulation in an agate mortar.

[4] = test system: BDF1 mice; experiment: Acute toxicity; type: in vivo; conditions: intravenous, 25 mg/kg mouse, Formulation Example 1
Experimental: as §1, §2

[5] = Mus musculus, P388, intravenous, 12.5 mg/kg
[6] = Mus musculus, P388, intravenous, 25 mg/kg
[7] = 10% peg 400 aqueous, organic solvent or mixture, 10% polyethylene glycol #400 aqueous solution, read-out: Solubility, test solution C
[8] = distilled water, water, read-out: Solubility, test solution A
[9] = physiological saline, read-out: Solubility, test solution B
[10] = Mus musculus, P388, intravenous
[11] = Mus musculus, P388, ip, intraperitoneal
[12] = Mus musculus, P388, ip, intraperitoneal, 12.5 mg/kg
[13] = Mus musculus, P388, ip, intraperitoneal, 25 mg/kg

Compound	ILS at 12.5 mg/kg [1, 5] [%]	ILS at 25 mg/kg [1, 6] [%]	solubility [2, 7] [µg/mL]	solubility [2, 8] [µg/mL]	solubility [2, 9] [µg/mL]	LD50 [3] [mg/kg]	ILS at 6.25 mg/kg [1, 10] [%]	ILS at 10 mg/kg ([1]; Mus musculus, P388, intravenous, 10 mg/kg (footnote d)) [%]	ILS at 20 mg/kg ([1]; Mus musculus, P388, intravenous, 20 mg/kg (footnote c)) [%]	BDF1 mice dead [4]	ILS at 6.25 mg/kg [1, 11] [%]	Increase life span (ILS %) ([1]; intraperitoneal, 12.5 mg/kg)	Increase life span (ILS %) ([1]; intraperitoneal, 25 mg/kg)	ILS at 12.5 mg/kg [1, 12] [%]	ILS at 25 mg/kg [1, 13] [%]
C[C@@H](N)C(=O)Nc1ccccc1C(=O)NC(=O)Nc1ccc(Oc2ncc(Br)cn2)c(Cl)c1 [Compound No. 4]	19	95	2700 (≈ 5.06 mM)	2000 (≈ 3.75 mM)	140 (≈ 0.262 mM)	≥ 25	–	–	–	–	–	–	–	–	–
NCC(=O)Nc1ccccc1C(=O)NC(=O)Nc1ccc(Oc2ncc(Cl)cn2)c(Cl)c1 [compound 9]	86	152	1500 (≈ 3.16 mM)	1600 (≈ 3.37 mM)	160 (≈ 0.337 mM)	≥ 25	19	–	–	–	–	–	–	–	–
CNCC(=O)Nc1ccccc1C(=O)NC(=O)Nc1ccc(Oc2ncc(Br)cn2)c(C)c1 [compound 53, N-[4-(5-bromo-2-pyrimidinyloxy)-3-methylphenyl]-N'-(2-sarcosylamino)benzoylurea]	–	–	–	5000 (≈ 9.74 mM)	120 (≈ 0.234 mM)	≥ 25	–	> 30	> 50	None	–	–	–	–	–
Nc1ccccc1C(=O)NC(=O)Nc1ccc(Oc2ncc(Cl)cn2)c(C(F)(F)F)c1 [compound 4, reference compound]	–	–	–	0.4 (≈ 0.000885 mM)	–	–	–	–	–	–	71	Tox	Tox	–	–
CSCC[C@H](N)C(=O)Nc1ccccc1C(=O)NC(=O)Nc1ccc(Oc2ncc(Br)cn2)c(Cl)c1 [Compound No. 5]	3	152	2000 (≈ 3.37 mM)	1200 (≈ 2.02 mM)	30 (≈ 0.0505 mM)	≥ 25	–	–	–	–	–	–	–	–	–
Cc1cc(NC(=O)NC(=O)c2ccccc2NC(=O)CN)ccc1Oc1ncc(Br)cn1 [Compound No. 7, N-[4-(5-bromo-2-pyrimidinyloxy)-3-methylphenyl]-N'-(2-glycylamino)benzoylurea]	105	143	3900 (≈ 7.81 mM)	> 2300	380 (≈ 0.761 mM)	≥ 25	50	–	–	–	–	–	–	–	–
Cc1cc(NC(=O)NC(=O)c2ccccc2NC(=O)CN(C)C)ccc1Oc1ncc(Br)cn1 [compound 20, N-[4-(5-bromo-2-pyrimidinyloxy)-3-methylphenyl]-N'-[2-(N,N-dimethylglycyl)amino]benzoylurea]	36	155	20000 (≈ 37.9 mM)	19000 (≈ 36 mM)	3000 (≈ 5.69 mM)	≥ 25	–	–	–	None	–	–	–	–	–
NCC(=O)NCC(=O)Nc1ccccc1C(=O)NC(=O)Nc1ccc(Oc2ncc(Br)cn2)c(Cl)c1 [compound 8]	90	243	2100 (≈ 3.64 mM)	1800 (≈ 3.12 mM)	70 (≈ 0.121 mM)	≥ 25	–	–	–	–	–	–	–	–	–
C[C@H](N)C(=O)Nc1ccccc1C(=O)NC(=O)Nc1ccc(Oc2ncc(Br)cn2)c(Cl)c1 [Compound No. 3]	70	134	3700 (≈ 6.93 mM)	2800 (≈ 5.25 mM)	320 (≈ 0.6 mM)	≥ 25	10	–	–	–	–	–	–	–	–
Cc1cc(NC(=O)NC(=O)c2ccccc2N)ccc1Oc1ncc(Cl)cn1 [compound 2, reference compound]	–	–	–	0.8 (≈ 0.00201 mM)	–	–	–	–	–	–	34	–	–	83	148
CN(C)CC(=O)Nc1ccccc1C(=O)NC(=O)Nc1ccc(Oc2ncc(Br)cn2)c(Cl)c1 [Compound No. 2, N-[4-(5-bromo-2-pyrimidinyloxy)-3-chlorophenyl]-N'-[2-(N,N-dimethylglycyl)amino]benzoylurea hydrochloride]	51	143	> 4000	2500	550	≥ 25	24	–	–	–	–	–	–	–	–
Cc1cc(NC(=O)NC(=O)c2ccccc2NC(=O)[C@H](C)N)ccc1Oc1ncc(Br)cn1 [compound 49]	76	190	9800 (≈ 19.1 mM)	7600 (≈ 14.8 mM)	1800 (≈ 3.51 mM)	≥ 25	14	–	–	None	–	–	–	–	–
NCC(=O)Nc1ccccc1C(=O)NC(=O)Nc1ccc(Oc2ncc(Cl)cn2)c(C(F)(F)F)c1 [compound 6]	138	–	1900 (≈ 3.73 mM)	1400 (≈ 2.75 mM)	70 (≈ 0.138 mM)	≥ 25	60	–	–	–	–	–	–	–	–
Nc1ccccc1C(=O)NC(=O)Nc1ccc(Oc2ncc(Br)cn2)c(Cl)c1 [compound 1, reference compound]	–	–	< 0.05	< 0.05	0.06 (≈ 0.00013 mM)	–	–	–	–	–	50	–	Tox	107	–
NCC(=O)Nc1ccccc1C(=O)NC(=O)Nc1ccc(Oc2ncc(Br)cn2)c(Cl)c1 [Compound No. 1, N-[4-(5-bromo-2-pyrimidinyloxy)-3-chlorophenyl]-N'-(2-glycylamino)benzoylurea hydrochloride]	79	219	2100	1200	50	≥ 25	12	–	–	–	–	–	–	–	–
CCc1cc(NC(=O)NC(=O)c2ccccc2N)ccc1Oc1ncc(Br)cn1 [compound 3, reference compound]	–	–	–	< 0.1	–	–	–	–	–	–	26	–	–	26	99
